Experimental data taken from patent publication US5753516A, “Screening method for ligands of the EBI-1 receptor” (priority 1995, dated 1998).
Several values for one entry are separate records, joined by “and”; a condition that tells them apart may be missing. Equal values may be shown once. Entries after “also recorded” stand apart in the source; their conditions may differ. Read-outs that look alike come from different tables or passages of the source.

Assays:
[1] = tested on: human T cells; experiment: Migration of human peripheral blood T cells; assay type: cell-based
[2] = tested on: NALM 6 cells; experiment: Flow cytometry of surface molecule expression on NALM 6 cells; assay type: cell-based, human; conditions: for surface expression of CD9: NALM 6 / pre-B ALL cells
Description: NALM 6 cells (10^6 /ml) were incubated at 37° with MET-ENK (10^-7 M) for 0 (Panel A and B) or 30 minutes (Panel C and D). Cells were then transferred to an ice bath, pelleted by centrifugation, and stained for immunofluorescent analysis and flow cytoflourimetry. Data are shown as histograms depicting the distribution of 10,000 cells labeled with anti-CD9 (Panel A and C) or CD-10 (Panel B and D) mAb. The anti-CD9 and anti-CD10 mAb used for these experiments were isotype matched (IgG1).
(§1) FIG. 4, Panels A-C. […] Data are presented as mean fluorescence intensities measured for 10,000 cells labeled with anti-CD9 or CD10 mAb. In Panel A, the NALM 6 Cells were incubated with MET-ENK (10^-7 M) for the times indicated. In Panel B, the LAZ 221 cells were incubated with MET-ENK at the doses indicated for 5 minutes at 37° C. […] The anti-CD9 and anti-CD10 mAb used for these experiments were of the IgG2a isotype.
(§2) Immunofluorescence Staining and Flow Cytometric Analysis of Cell Surface Molecules: Cells were resuspended at 1×10^6 /ml in PBS and then incubated for periods of 5 to 120 minutes at 37° C. with MET-ENK at doses of 0 to 10^-5 M. Incubations were terminated by transferring samples to an ice bath and then pelleting the cells by centrifugation at 1800 rpm for 5 minutes at 4° C.
(§3) Immunofluorescence staining was carried out in 4-ml tubes maintained in an ice water bath. […] Cells were subsequently fixed within a 2% solution of formalin and maintained in the dark at 10° C. until analyzed.
(§4) Flow cytometric analysis was performed using a FACS SCAN Flow Cytometer (Becton Dickinson, Mountain View, Calif.) equipped with a HP9000 Series computer and the Lysys System software analysis package. Data were collected as histograms depicting the fluorescence intensity for 5,000 to 10,000 cells per sample.
(§5) The non-binding IgG1 MOPC myeloma protein, anti-macrophage/monocyte specific CD14 (MO2; IgG2) and anti-T cell specific CD3 (OKT3; IgG2a) mAb were employed as nonreactive controls for measuring the autofluorescence of B cells.

[3] = tested on: LAZ 221 cells; experiment: Migration (chemotaxis) of LAZ 221 pre-B ALL cells; assay type: cell-based, human; conditions: LAZ 221, peptide 100 nM; spontaneous locomotion 1886
[4] = tested on: NALM 6 cells; experiment: Migration (chemotaxis) of NALM 6 pre-B ALL cells; assay type: cell-based, human; conditions: for Number of cells at 40 μm from origin: cells preincubated with mAb (MET-ENK line: buffer, alone); for cell counts, migration to MET-ENK without naloxone: spontaneous 1647
[5] = tested on: COS (Vector Control); experiment: cAMP accumulation in COS cells (vector control); assay type: cell-based, monkey
[6] = tested on: lymphocytes and macrophages; conditions: cited from earlier work
[7] = biological target: T1, EBI1 (Homo sapiens, UniProt P32248)
T1 sequence (P32248 25-378): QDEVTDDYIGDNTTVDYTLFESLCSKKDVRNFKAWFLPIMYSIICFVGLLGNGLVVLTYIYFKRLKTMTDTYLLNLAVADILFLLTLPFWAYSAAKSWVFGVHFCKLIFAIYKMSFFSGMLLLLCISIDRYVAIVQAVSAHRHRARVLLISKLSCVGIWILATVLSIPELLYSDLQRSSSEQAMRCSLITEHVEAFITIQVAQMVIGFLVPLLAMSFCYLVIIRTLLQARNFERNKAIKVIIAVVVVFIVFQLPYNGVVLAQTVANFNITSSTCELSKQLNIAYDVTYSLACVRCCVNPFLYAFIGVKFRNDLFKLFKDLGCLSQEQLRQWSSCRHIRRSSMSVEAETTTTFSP

[8] = tested on: LAZ 221 cells; experiment: Flow cytometry of surface molecule expression on LAZ 221 cells; assay type: cell-based, human
Description: as §1, §2, §3, §4, §5

[9] = tested on: murine splenocytes; conditions: cited from earlier work
[10] = tested on: LAZ 388 cells; experiment: Migration (chemotaxis) of LAZ 388 EBV-transformed B cells; assay type: cell-based, human
[11] = tested on: NALM 6 cells; conditions: cited from earlier work
[12] = tested on: NALM 6 cells; experiment: MET-ENK-FITC binding to NALM 6 cells (flow cytometry, Scatchard); parameters: species or system human; conditions: NALM 6
[13] = tested on: Jurkat cells; experiment: MET-ENK-FITC binding to Jurkat cells (flow cytometry, Scatchard); parameters: species or system human
[14] = NALM 6, 10^-7 M MET-ENK, untreated 1.0
[15] = NALM 6, 10^-7 M MET-ENK, untreated 1.1
[16] = NALM 6, 10^-7 M MET-ENK, untreated 1.8
[17] = LAZ 221, 10^-7 M MET-ENK, untreated 1.0
[18] = LAZ 221, 10^-7 M MET-ENK, untreated 1.7
[19] = listed as methionine enkephalin
[20] = read-out: Kd, high affinity site
[21] = read-out: Kd, low affinity site

CSCC[C@H](NC(=O)[C@H](Cc1ccccc1)NC(=O)CNC(=O)CNC(=O)[C@@H](N)Cc1ccc(O)cc1)C(=O)O [MET-ENK, Tyr-Gly-Gly-Phe-Met]
human lymphocyte / T cell migration [1]: stimulate human lymphocyte migration | duration of enhanced CD9 expression ([2]; MET-ENK 10^-7 M): 60 min | time of decline of CD9 expression to near baseline ([2]; MET-ENK 10^-7 M): 120 min | incubation time causing increase in CD9 expression ([2]; MET-ENK 10^-7 M, pre-B ALL cells): ≤ 10 min | staining for β-1 integrins, MET-ENK treated vs not ([2]; NALM 6): equivalent on NALM 6 cells incubated with (+) or without (-) MET-ENK | CD11b (Mac 1) fluorescence ratio (mAb/isotype control) ([2]; NALM 6, 10^-7 M MET-ENK 30 min, untreated 1.0): 1.1 | CD4 fluorescence ratio [2, 14]: 1.0 | CD44 (homing receptor) fluorescence ratio [2, 14]: 2.2 | CD49b (VLA-α2 chain) fluorescence ratio [2, 14]: 0.9 | CD58 (LFA-3) fluorescence ratio [2, 14]: 0.9 | CD18 (Integrin β chain) fluorescence ratio [2, 15]: 1.4 | CD45 (T200) fluorescence ratio [2, 15]: 1.0 | VLA-1 fluorescence ratio [2, 15]: 0.6 | VLA-3 fluorescence ratio [2, 15]: 0.7 | CD20 fluorescence ratio ([2]; NALM 6, 10^-7 M MET-ENK, untreated 1.5): 1.3 | CD72 fluorescence ratio ([2]; NALM 6, 10^-7 M MET-ENK, untreated 1.6): 2.8 | CD23 fluorescence ratio [2, 16]: 1.6 | CD49f (VLA-α6 chain) fluorescence ratio [2, 16]: 1.3 | CD22 fluorescence ratio ([2]; NALM 6, 10^-7 M MET-ENK, untreated 2.3): 3.1 | CD49d (VLA-α4 chain) fluorescence ratio ([2]; NALM 6, 10^-7 M MET-ENK, untreated 3.9): 4.4 | VLA-5 fluorescence ratio ([2]; NALM 6, 10^-7 M MET-ENK, untreated 5.2): 4.9 | CD29 (VLA-β chain) fluorescence ratio ([2]; NALM 6, 10^-7 M MET-ENK, untreated 8.4): 9.3 | CD54 (ICAM-1) fluorescence ratio ([2]; NALM 6, 10^-7 M MET-ENK, untreated 9.3): 10.5 | VLA-β; DE9N fluorescence ratio ([2]; NALM 6, 10^-7 M MET-ENK, untreated 13.6): 13.8 | surface expression of CD10 ([2]; NALM 6 / LAZ 221): no effect on CD10 expression | surface expression of CD9 [2]: upregulation of CD9; also recorded: transient increase in their surface expression of CD9 but not CD10 molecules | surface expression of CD9 ([2]; listed as Methionine-enkephalin): discrete, transient up-regulation in the CD9 molecules; also recorded: rapid and dose-dependentincrease in the CD9 but not CD10 molecules | CD9 expression, cells in ice water bath ([2]; ice water bath, data not shown): had no effect when they were maintained in an ice water bath | cell migration (cell counts) [3]: 6199 cell counts | Number of cells at 40 μm from origin ([4]; MET-ENK 0.01 nM): 238 | cell counts, migration to MET-ENK without naloxone ([4]; MET-ENK 1 nM): 2925 cell counts | Number of cells at 40 μm from origin ([4]; MET-ENK 1.0 nM): 407 | cell counts, migration to MET-ENK without naloxone ([4]; MET-ENK 100 nM): 3492 cell counts | Number of cells at 40 μm from origin ([4]; MET-ENK 100 nM): 637 | cell migration (cell counts) ([4]; NALM 6, peptide 100 nM, spontaneous locomotion 2190): 6952 cell counts | effect on migration of pre-B ALL cells ([4]; NALM 6 and LAZ 221 cells): potent stimulus for the migration of NALM 6 and LAZ 221 (pre-B ALL) but not LAZ 388 (EBV-transformed) cells | concentration at which effect on migration is detected ([4]; NALM 6 and LAZ 221 pre-B ALL cells): ≤ 10 pM | cAMP ([5]; COS (Vector Control), MET-ENK 0.01 nM, naloxone 10 μM, forskolin 0.1 μM, controls 40.2 and 38.8): 31.6 fmoles/cell × 10^3 | effect on cAMP, mock transfected controls ([5]; COS transfected with vector alone): no effect on the cAMP produced in mock transfected controls | lymphocyte trafficking in vivo ([6]; animals): enhance lymphocyte trafficking | lymphocyte and macrophage migration into ventricles ([6]; injection into cerebroventricles of rodents): elicited lymphocyte and macrophage migration into the ventricles | cAMP [7]: 109.6 fmoles/cell × 10^3 | surface expression of CD9 ([8]; LAZ 221): transient increase in their surface expression of CD9 but not CD10 molecules | CD2 (LFA-2) fluorescence ratio ([8]; LAZ 221, 10^-7 M MET-ENK, untreated 0.9): 1.0 | CD4 fluorescence ratio [8, 17]: 1.0 | CD11a (LF1α) fluorescence ratio [8, 17]: 1.1 | CD18 (Integrin β chain) fluorescence ratio [8, 17]: 1.1 | CD20 fluorescence ratio [8, 17]: 1.1 | CD11b (Mac 1) fluorescence ratio ([8]; LAZ 221, 10^-7 M MET-ENK, untreated 1.4): 1.5 | CD54 (ICAM-1) fluorescence ratio ([8]; LAZ 221, 10^-7 M MET-ENK, untreated 1.5): 1.5 | CD19 fluorescence ratio [8, 18]: 1.9 | CD29 (VLA-β chain) fluorescence ratio [8, 18]: 1.9 | CD58 (LFA-3) fluorescence ratio [8, 18]: 1.9 | VLA-β; DE9N fluorescence ratio ([8]; LAZ 221, 10^-7 M MET-ENK, untreated 5.8): 5.6 | lowest dose increasing CD9 expression ([8]; LAZ 221, 5 minutes at 37° C.): 10^-11 M | humoral / antibody response [9]: diminished | cell migration (cell counts) ([10]; LAZ 388, peptide 100 nM, spontaneous locomotion 1938): 1986 cell counts | migration of LAZ 388 cells ([10]; LAZ 388 vs spontaneous locomotion): equivalent to their spontaneous locomotion | lag phase before [Ca^2+ ]i rise [11]: ~ 30 sec | Bmax, low affinity sites [12]: 4.48×10^4 sites/cell | number of high affinity sites [12]: 25.9 pM | number of low affinity sites [12]: 149 pM | Bmax, low affinity sites [12, 19]: 4.48×10^4 sites/cell | Kd [12, 20]: 1.01 nM | Kd [12, 21]: 318 nM | Bmax, low affinity sites [13]: 3.3×10^4 sites/cell and 3.0×10^4 sites/cell | number of high affinity sites [13]: 3.3 pM | number of low affinity sites [13]: 101 pM | Bmax, low affinity sites [13, 19]: 3.0×10^4 sites/cell | Kd [13, 20]: 1.36 nM | Kd [13, 21]: 318 nM
